Measured values: patent US8471061B2 (priority 2004, dated 2013)
Values joined by “and” are separate entries in the source; they are usually repeats but may differ in a detail not shown here. Identical values can stand only once. Like-named read-outs stand apart in the source and are kept apart here.

Legend:
[1] = test system: Salmonella typhimurium TA 100; assay: Back mutation test, TA100; assay type: cell-based; conditions: for number of back mutation, single plates: Phosphate
Description: (§1) A test was carried out in accordance with the “Standard of Mutagenicity Tests Using Microorganisms” (Ministry of Labor Notification No. 77, 1988) (partial revision by Ministry of Labor Notification No. 67, 1997) and “Regarding the Tests Concerning Novel Chemical Substances and the like” (dated Nov. 21, 2003: Yaku-Shoku-Hatsu No. 1121002, 2003.11.13 Sei-Kyoku, No. 2, Kan-Ho-Ki-Hatsu No. 031121002). To 0.1 ml of a solution prepared by dissolving 5% (w/v) of 5-aminolevulinic acid phosphate in distilled water (Wako Pure Chemical Industries), 0.5 ml of 0.1 M sodium-phosphate buffer (pH 7.4) (0.5 ml S9 mix in the case of metabolism activation test) was added, and 0.1 ml of each test strain suspension (5 strains of histidine-less Salmonella typhimurium TA 100, TA 98, TA 1535 and TA 1537 and tryptophan-less Escherichia coli WP2 uvrA were used (Japan Bioassay Research Center)) was further added thereto, followed by pre-incubation at 37° C. for 20 minutes while shaking. After completion of the culturing, 2.0 ml of top agar kept at 45° C. in advance was added thereto and layered on a minimum glucose agar plate medium. In this case, 2 plates were arranged for each dosage. However, 3 plates were arranged for a solvent control (negative control). […] In the measurement, an inner area of about 80 mm in diameter of a plate of 86 mm in diameter (84 mm in inner diameter) was measured using an automatic colony analyzer (CA-11: manufactured by System Science), and calculated by carrying out area correction and counting loss correction using a personal computer. However, since reliability of the automatic colony analyzer is reduced when the number of colonies is 1,500 or more, 5 points in the plate were manually measured under the stereoscopic microscope to carry out area correction of the average value. A dosage setting test was carried out on 7 dosages diluted at a common ratio of 4, using a dosage of 5,000 μg/plate as the maximum which is the maximum dosage defined by the guideline. […] Growth inhibition of the strains by this substance to be tested was not found. […] Thus, this test was carried out by setting 5 dosages diluted at a common ratio of 2, using a dosage of 5,000 μg/plate as the maximum which is the maximum dosage defined by the guideline.

[2] = test system: Salmonella typhimurium TA 98; assay: Back mutation test, TA98; assay type: cell-based
Description: as §1

[3] = test system: Salmonella typhimurium TA 1535; conditions: TA1535
Description: (§2) A test was carried out in accordance with the “Standard of Mutagenicity Tests Using Microorganisms” (Ministry of Labor Notification No. 77, 1988) (partial revision by Ministry of Labor Notification No. 67, 1997) and “Regarding the Tests Concerning Novel Chemical Substances and the like” (dated Nov. 21, 2003: Yaku-Shoku-Hatsu No. 1121002, 2003.11.13 Sei-Kyoku, No. 2, Kan-Ho-Ki-Hatsu No. 031121002). To 0.1 ml of a solution prepared by dissolving 5% (w/v) of 5-aminolevulinic acid phosphate in distilled water (Wako Pure Chemical Industries), 0.5 ml of 0.1 M sodium-phosphate buffer (pH 7.4) (0.5 ml S9 mix in the case of metabolism activation test) was added, and 0.1 ml of each test strain suspension (5 strains of histidine-less Salmonella typhimurium TA 100, TA 98, TA 1535 and TA 1537 and tryptophan-less Escherichia coli WP2 uvrA were used (Japan Bioassay Research Center)) was further added thereto, followed by pre-incubation at 37° C. for 20 minutes while shaking. After completion of the culturing, 2.0 ml of top agar kept at 45° C. in advance was added thereto and layered on a minimum glucose agar plate medium. In this case, 2 plates were arranged for each dosage. However, 3 plates were arranged for a solvent control (negative control). […] In the measurement, an inner area of about 80 mm in diameter of a plate of 86 mm in diameter (84 mm in inner diameter) was measured using an automatic colony analyzer (CA-11: manufactured by System Science), and calculated by carrying out area correction and counting loss correction using a personal computer. However, since reliability of the automatic colony analyzer is reduced when the number of colonies is 1,500 or more, 5 points in the plate were manually measured under the stereoscopic microscope to carry out area correction of the average value. A dosage setting test was carried out on 7 dosages diluted at a common ratio of 4, using a dosage of 5,000 μg/plate as the maximum which is the maximum dosage defined by the guideline.

[4] = test system: Salmonella typhimurium TA 1537; conditions: TA1537
Description: as §2

[5] = S9 Mix(+), 313 μg/plate, Phosphate
[6] = S9 Mix(+), 1250 μg/plate, Phosphate
[7] = S9 Mix(+), 5000 μg/plate, Phosphate
[8] = S9 Mix(−), 2500 μg/plate, Phosphate
[9] = S9 Mix(−), 1250 μg/plate, Phosphate

## NCC(=O)CCC(=O)O.O=P(O)(O)O [5-aminolevulinic acid phosphate, 5-aminolevulinic Acid Phosphate]
[1]; S9 Mix(+), 313 μg/plate
  number of back mutation, mean (in parentheses): (134) colonies/plate
  number of back mutation, single plates: 146 colonies/plate and 122 colonies/plate
[1]; S9 Mix(+), 625 μg/plate
  number of back mutation, mean (in parentheses): (102) colonies/plate
  number of back mutation, single plates: 107 colonies/plate and 96 colonies/plate
[1]; S9 Mix(+), 1250 μg/plate
  number of back mutation, mean (in parentheses): (129) colonies/plate
  number of back mutation, single plates: 128 colonies/plate and 129 colonies/plate
[1]; S9 Mix(+), 2500 μg/plate
  number of back mutation, mean (in parentheses): (106) colonies/plate
  number of back mutation, single plates: 109 colonies/plate and 102 colonies/plate
[1]; S9 Mix(+), 5000 μg/plate
  number of back mutation, mean (in parentheses): (133) colonies/plate
  number of back mutation, single plates: 130 colonies/plate and 136 colonies/plate
[1]; S9 Mix(−), 313 μg/plate
  number of back mutation, mean (in parentheses): (85) colonies/plate
  number of back mutation, single plates: 87 colonies/plate and 82 colonies/plate
[1]; S9 Mix(−), 625 μg/plate
  number of back mutation, mean (in parentheses): (90) colonies/plate
  number of back mutation, single plates: 84 colonies/plate and 95 colonies/plate
[1]; S9 Mix(−), 1250 μg/plate
  number of back mutation, mean (in parentheses): (99) colonies/plate
  number of back mutation, single plates: 84 colonies/plate and 114 colonies/plate
[1]; S9 Mix(−), 2500 μg/plate
  number of back mutation, mean (in parentheses): (79) colonies/plate
  number of back mutation, single plates: 76 colonies/plate and 82 colonies/plate
[1]; S9 Mix(−), 5000 μg/plate
  number of back mutation, mean (in parentheses): (107) colonies/plate
  number of back mutation, single plates: 115 colonies/plate and 99 colonies/plate
[2]; S9 Mix(+), 313 μg/plate
  number of back mutation, mean (in parentheses): (12) colonies/plate
[2]; [5]
  number of back mutation, single plates: 13 colonies/plate and 11 colonies/plate
[2]; S9 Mix(+), 625 μg/plate
  number of back mutation, mean (in parentheses): (9) colonies/plate
  number of back mutation, single plates: 9 colonies/plate
[2]; S9 Mix(+), 1250 μg/plate
  number of back mutation, mean (in parentheses): (21) colonies/plate
[2]; [6]
  number of back mutation, single plates: 14 colonies/plate and 27 colonies/plate
[2]; S9 Mix(+), 2500 μg/plate
  number of back mutation, mean (in parentheses): (11) colonies/plate
[2]; S9 Mix(+), 5000 μg/plate
  number of back mutation, mean (in parentheses): (21) colonies/plate
[2]; [7]
  number of back mutation, single plates: 20 colonies/plate and 21 colonies/plate
[2]; S9 Mix(−), 313 μg/plate
  number of back mutation, mean (in parentheses): (8) colonies/plate
[2]; S9 Mix(−), 313 μg/plate, Phosphate
  number of back mutation, single plates: 9 colonies/plate and 7 colonies/plate
[2]; S9 Mix(−), 625 μg/plate
  number of back mutation, mean (in parentheses): (9) colonies/plate
[2]; S9 Mix(−), 1250 μg/plate
  number of back mutation, mean (in parentheses): (6) colonies/plate
[2]; S9 Mix(−), 2500 μg/plate
  number of back mutation, mean (in parentheses): (16) colonies/plate
[2]; [8]
  number of back mutation, single plates: 15 colonies/plate and 17 colonies/plate
[2]; S9 Mix(−), 5000 μg/plate
  number of back mutation, mean (in parentheses): (8) colonies/plate
[2]; S9 Mix(−), 5000 μg/plate, Phosphate
  number of back mutation, single plates: 9 colonies/plate and 7 colonies/plate
[3]; S9 Mix(+), 313 μg/plate
  number of back mutation, mean (in parentheses): (11) colonies/plate
[3]; [5]
  number of back mutation, single plates: 11 colonies/plate and 10 colonies/plate
[3]; S9 Mix(+), 625 μg/plate
  number of back mutation, mean (in parentheses): (10) colonies/plate
[3]; S9 Mix(+), 1250 μg/plate
  number of back mutation, mean (in parentheses): (12) colonies/plate
[3]; [6]
  number of back mutation, single plates: 10 colonies/plate and 14 colonies/plate
[3]; S9 Mix(+), 2500 μg/plate
  number of back mutation, mean (in parentheses): (8) colonies/plate
  number of back mutation, single plates: 8 colonies/plate
[3]; S9 Mix(+), 5000 μg/plate
  number of back mutation, mean (in parentheses): (7) colonies/plate
[3]; [7]
  number of back mutation, single plates: 6 colonies/plate and 8 colonies/plate
[3]; S9 Mix(−), 313 μg/plate
  number of back mutation, mean (in parentheses): (10) colonies/plate
  number of back mutation, single plates: 10 colonies/plate
[3]; S9 Mix(−), 625 μg/plate
  number of back mutation, mean (in parentheses): (10) colonies/plate
[3]; S9 Mix(−), 1250 μg/plate
  number of back mutation, mean (in parentheses): (10) colonies/plate
[3]; [9]
  number of back mutation, single plates: 8 colonies/plate and 11 colonies/plate
[3]; S9 Mix(−), 2500 μg/plate
  number of back mutation, mean (in parentheses): (6) colonies/plate
[3]; [8]
  number of back mutation, single plates: 6 colonies/plate and 5 colonies/plate
[3]; S9 Mix(−), 5000 μg/plate
  number of back mutation, mean (in parentheses): (7) colonies/plate
[4]; S9 Mix(+), 313 μg/plate
  number of back mutation, mean (in parentheses): (5) colonies/plate
[4]; S9 Mix(+), 625 μg/plate
  number of back mutation, mean (in parentheses): (6) colonies/plate
[4]; S9 Mix(+), 1250 μg/plate
  number of back mutation, mean (in parentheses): (6) colonies/plate
  number of back mutation, single plates: 6 colonies/plate
[4]; S9 Mix(+), 2500 μg/plate
  number of back mutation, mean (in parentheses): (4) colonies/plate
[4]; S9 Mix(+), 2500 μg/plate, Phosphate
  number of back mutation, single plates: 5 colonies/plate and 3 colonies/plate
[4]; S9 Mix(+), 5000 μg/plate
  number of back mutation, mean (in parentheses): (4) colonies/plate
[4]; S9 Mix(−), 313 μg/plate
  number of back mutation, mean (in parentheses): (2) colonies/plate
[4]; S9 Mix(−), 625 μg/plate
  number of back mutation, mean (in parentheses): (3) colonies/plate
[4]; S9 Mix(−), 1250 μg/plate
  number of back mutation, mean (in parentheses): (3) colonies/plate
[4]; [9]
  number of back mutation, single plates: 4 colonies/plate and 2 colonies/plate
[4]; S9 Mix(−), 2500 μg/plate
  number of back mutation, mean (in parentheses): (2) colonies/plate
  number of back mutation, single plates: 2 colonies/plate
[4]; S9 Mix(−), 5000 μg/plate
  number of back mutation, mean (in parentheses): (3) colonies/plate
